According to patent publication US20240059688A1, “CONOLIDINE ANALOGUES AS SELECTIVE ACKR3 MODULATORS FOR THE TREATMENT OF CANCER” (Luxembourg Institute of Health (LIH), priority 2020, published 2024):

Experiments:
Format in all cases: cell-based
[1] = target: ACKR3 (Homo sapiens, UniProt P25106); experiment: ACKR3 β-arrestin recruitment assay (PathHunter, β-galactosidase complementation); conditions: for EC50: stable human ACKR3-β-arrestin-2-CHO cells, mean ± SEM, at least two independent experiments in duplicate; for Emax: read-out: ACKR3 β-arrestin % CXCL12 Emax ± SEM
Sequence of ACKR3 (P25106 whole entry): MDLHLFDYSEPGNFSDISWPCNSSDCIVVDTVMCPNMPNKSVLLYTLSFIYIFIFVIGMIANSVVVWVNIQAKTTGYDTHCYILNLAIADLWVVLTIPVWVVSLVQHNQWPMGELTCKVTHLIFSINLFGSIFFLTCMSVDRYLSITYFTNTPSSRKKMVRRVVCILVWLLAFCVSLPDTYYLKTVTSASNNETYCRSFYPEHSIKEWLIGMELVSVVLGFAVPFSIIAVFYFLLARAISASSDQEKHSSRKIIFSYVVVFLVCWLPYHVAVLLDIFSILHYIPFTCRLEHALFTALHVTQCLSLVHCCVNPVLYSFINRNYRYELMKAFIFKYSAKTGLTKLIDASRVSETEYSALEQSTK
Protocol: (§1) Compounds were evaluated for agonist activity using a β-arrestin recruitment assay based on β-galactosidase complementation (PathHunter, DiscoverX). Stable human ACKR3-β-arrestin-2-CHO cells (DiscoverX) were plated into 96-well white-walled assay plates at 15,000 cells/well in Cell Plating Reagent 2 (DiscoveRx) and incubated at 37° C., 5% CO2 overnight. The next day, test compounds were prepared at 10× concentration in DPBS/1% DMSO and 10 μL was added to the cells. CXCL-12 was included as a positive agonist control. Following a 1.5 hr incubation at 37° C., 55 μL of detection reagent (prepared according to the manufacturer's specifications) was added to each well. The plate was incubated at room temperature for 1 hr, after which luminescence was measured at 1 sec/well using an EnSpire multimode plate reader (PerkinElmer). Relative luminescence units (RLU) were plotted against the log of compound concentration and data were fit to a three-parameter logistic curve to generate EC50 values (GraphPad Prism). EC50 and % Emax values are reported as means±SEM and are the result of at least two independent experiments performed in duplicate. The CXCR4 assay was run similarly except that human CXCR4-C2Cl2 cells (DiscoverX) were plated at 20,000 cells/well in Cell Plating Reagent 9. The next day, the media was removed and cells were incubated with Cell Plating Reagent 4 for 3 hrs, after which the assay was conducted as described above.

[2] = target: T1, human CXCR4 (Homo sapiens, UniProt P61073); experiment: CXCR4 β-arrestin recruitment assay (PathHunter); conditions: human CXCR4-C2Cl2 cells, relative to CXCL-12
T1 construct: host or cells: C2C12
T1 sequence (P61073 whole entry): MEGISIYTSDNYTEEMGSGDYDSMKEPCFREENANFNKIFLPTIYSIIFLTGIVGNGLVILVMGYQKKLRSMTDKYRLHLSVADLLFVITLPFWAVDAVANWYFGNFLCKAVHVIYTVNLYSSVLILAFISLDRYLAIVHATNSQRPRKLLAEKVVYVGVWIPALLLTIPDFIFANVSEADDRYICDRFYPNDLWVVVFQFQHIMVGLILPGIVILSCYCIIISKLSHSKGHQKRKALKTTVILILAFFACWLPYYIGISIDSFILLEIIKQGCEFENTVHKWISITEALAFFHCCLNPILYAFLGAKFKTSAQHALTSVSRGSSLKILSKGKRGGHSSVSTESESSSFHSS
Protocol: as §1

[3] = target: T2, CaV 3.2 (Homo sapiens, UniProt O95180); experiment: CaV 3.2 calcium assay in stable human CaV3.2-HEK293 cells; conditions: control agonist calcium chloride
T2 construct: expressed in transfected cells
T2 sequence (O95180 whole entry): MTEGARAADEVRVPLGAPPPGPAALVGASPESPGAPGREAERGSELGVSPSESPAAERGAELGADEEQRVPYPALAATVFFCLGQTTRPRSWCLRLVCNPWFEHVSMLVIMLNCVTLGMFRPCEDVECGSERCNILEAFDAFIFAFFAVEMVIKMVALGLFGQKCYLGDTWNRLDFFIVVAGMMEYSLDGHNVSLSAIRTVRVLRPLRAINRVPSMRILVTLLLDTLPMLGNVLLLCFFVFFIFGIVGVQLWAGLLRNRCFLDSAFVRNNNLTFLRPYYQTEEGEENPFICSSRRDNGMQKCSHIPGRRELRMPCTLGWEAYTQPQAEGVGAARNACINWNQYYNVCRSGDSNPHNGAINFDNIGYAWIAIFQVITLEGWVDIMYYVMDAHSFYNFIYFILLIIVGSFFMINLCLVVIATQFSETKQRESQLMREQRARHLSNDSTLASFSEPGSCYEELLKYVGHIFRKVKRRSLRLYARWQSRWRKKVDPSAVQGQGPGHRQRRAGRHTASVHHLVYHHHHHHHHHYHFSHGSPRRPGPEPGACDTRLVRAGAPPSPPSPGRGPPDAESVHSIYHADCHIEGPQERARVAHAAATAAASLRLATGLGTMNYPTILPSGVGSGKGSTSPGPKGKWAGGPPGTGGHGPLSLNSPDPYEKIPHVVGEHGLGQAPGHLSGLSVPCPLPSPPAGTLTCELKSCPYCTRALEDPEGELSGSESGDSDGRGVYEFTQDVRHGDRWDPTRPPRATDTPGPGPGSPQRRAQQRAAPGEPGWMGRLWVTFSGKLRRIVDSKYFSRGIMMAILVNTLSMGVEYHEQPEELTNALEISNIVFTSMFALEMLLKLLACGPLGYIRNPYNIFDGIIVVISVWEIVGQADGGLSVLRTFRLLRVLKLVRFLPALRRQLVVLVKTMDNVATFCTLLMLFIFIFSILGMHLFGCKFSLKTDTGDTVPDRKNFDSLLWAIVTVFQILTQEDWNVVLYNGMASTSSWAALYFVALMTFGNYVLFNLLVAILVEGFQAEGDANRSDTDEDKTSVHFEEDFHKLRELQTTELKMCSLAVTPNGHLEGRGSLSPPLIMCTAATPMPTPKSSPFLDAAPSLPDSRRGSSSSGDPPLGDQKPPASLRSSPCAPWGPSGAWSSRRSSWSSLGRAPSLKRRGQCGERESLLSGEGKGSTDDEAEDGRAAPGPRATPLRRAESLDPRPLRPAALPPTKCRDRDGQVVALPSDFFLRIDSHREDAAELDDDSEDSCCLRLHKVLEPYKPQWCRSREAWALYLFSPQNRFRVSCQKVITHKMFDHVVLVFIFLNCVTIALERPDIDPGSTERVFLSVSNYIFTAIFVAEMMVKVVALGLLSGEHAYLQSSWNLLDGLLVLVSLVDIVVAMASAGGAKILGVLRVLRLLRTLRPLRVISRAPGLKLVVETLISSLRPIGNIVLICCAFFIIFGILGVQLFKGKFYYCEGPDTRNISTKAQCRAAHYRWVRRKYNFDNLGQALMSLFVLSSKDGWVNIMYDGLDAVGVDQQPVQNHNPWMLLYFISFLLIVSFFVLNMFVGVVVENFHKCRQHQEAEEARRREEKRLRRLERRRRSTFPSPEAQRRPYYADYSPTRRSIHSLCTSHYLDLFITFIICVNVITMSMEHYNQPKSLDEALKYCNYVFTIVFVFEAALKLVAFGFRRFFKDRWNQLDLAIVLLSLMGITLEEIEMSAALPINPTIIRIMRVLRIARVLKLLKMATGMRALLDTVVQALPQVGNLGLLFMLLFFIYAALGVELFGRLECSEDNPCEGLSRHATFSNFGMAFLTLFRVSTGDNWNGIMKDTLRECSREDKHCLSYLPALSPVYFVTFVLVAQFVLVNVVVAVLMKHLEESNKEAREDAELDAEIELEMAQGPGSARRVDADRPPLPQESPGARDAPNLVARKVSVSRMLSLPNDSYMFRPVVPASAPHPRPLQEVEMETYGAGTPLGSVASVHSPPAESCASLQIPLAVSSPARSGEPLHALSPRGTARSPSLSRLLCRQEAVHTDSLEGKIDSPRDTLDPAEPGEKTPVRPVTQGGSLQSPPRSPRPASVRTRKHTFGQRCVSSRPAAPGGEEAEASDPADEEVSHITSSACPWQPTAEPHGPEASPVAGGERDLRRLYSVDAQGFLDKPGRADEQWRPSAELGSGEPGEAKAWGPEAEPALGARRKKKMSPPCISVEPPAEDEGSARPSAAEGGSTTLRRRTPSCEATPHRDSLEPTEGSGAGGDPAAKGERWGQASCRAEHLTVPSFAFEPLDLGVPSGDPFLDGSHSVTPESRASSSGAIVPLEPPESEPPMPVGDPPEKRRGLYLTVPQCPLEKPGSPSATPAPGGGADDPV
Protocol: (§2) Compounds were evaluated for kappa (KOR), mu (MOR), and delta (DOR) opioid receptor agonist and antagonist activity in three individual cell lines overexpressing Gαq16 (CHO-RD-HGA16, Molecular Devices) and the human kappa, mu, and delta opioid receptors, respectively. The day before the assay, cells were plated into 96-well black-walled assay plates at 30,000 cells/well in Ham's F12 supplemented with 10% fetal bovine serum, and 100 units of penicillin and streptomycin. The cells were incubated overnight at 37° C., 5% CO2. Prior to the assay, Calcium 5 dye (Molecular Devices) was reconstituted according to the manufacturer's instructions. The reconstituted dye was diluted 1:40 in pre-warmed (37° C.) assay buffer (1×HBSS, 20 mM HEPES, 2.5 mM probenecid, pH 7.4 at 37° C.). Growth medium was removed and the cells were gently washed with 100 μL of pre-warmed (37° C.) assay buffer. The cells were incubated for 45 minutes at 37° C., 5% CO2 in 200 μL of the diluted Calcium 5 dye. For the agonist screen, a single concentration of each test compound and receptor-specific controls (U69,593, DAMGO, and DPDPE for KOR, MOR, and DOR, respectively) were prepared at 10× the desired final concentration in 1% DMSO/assay buffer, aliquoted into a 96-well polystyrene plate, and warmed to 37° C. After the dye-loading incubation period, pretreatment solution was added to each well (25 μL of 9% DMSO/assay buffer) and, after 15 min, the plate was read with a FlexStation II (Molecular Devices). Calcium-mediated changes in fluorescence were monitored every 1.52 seconds over a 60 second time period, with the FlexStation II adding 50 μL of test compounds at the 19 second time point (excitation at 485 nm, detection at 525 nm). Peak kinetic reduction (SoftMax, Molecular Devices) relative fluorescence units (RFU) were used to calculate % control agonist Emax with the equation % Emax=(test compound RFU/control agonist RFU)×100. For the antagonist screens, the same procedure was followed except that the pretreatment solution consisted of the test compounds (prepared at […] the desired final concentration in 9% DMSO/assay buffer) and the FlexStation added the EC60 concentration (prepared at 10× the desired final concentration in 1% DMSO/assay buffer) of each respective control agonist. Peak RFU were used to calculate % control EC60 inhibition with the equation % inhibition=((EC60 RFU−test compound RFU)/EC60 RFU)×100. When IC50 determinations were made, the same antagonist screen procedure was followed except that cells were pretreated with 8-pt concentration-response curves of the test compounds. Peak RFU were plotted against the log of compound concentration using non-linear regression analysis to generate IC50 values (GraphPad Prism). Each test sample was analyzed in duplicate in two independent experiments.
Compounds were evaluated for activity at CaV 3.2 using stable human CaV3.2-HEK293 cells and the control agonist calcium chloride. The day before the assay, cells were plated into 96-well black-walled assay plates coated with poly-D-lysine in DMEM-F12 supplemented with 10% fetal bovine serum, 100 units penicillin/streptomycin, and 500 μM sodium pyruvate, and incubated at 37° C., 5% CO2 overnight. Prior to the assay, Calcium 5 dye (Molecular Devices) was reconstituted according to the manufacturer instructions. The reconstituted dye was diluted 1:10 in pre-warmed (37° C.) assay buffer (1×HBSS, […], […], pH 7.4 at 37° C.). The cells were incubated for 45 minutes at 37° C., 5% CO2 in 200 μL of the diluted Calcium 5 dye. Compounds were prepared as described above and the plate was read with a FLIPR Tetra (Molecular Devices). Calcium-mediated changes in fluorescence were monitored every 1 second over a 60 second time period, with the Tetra adding 25 μL of appropriate compound at the 10 second time point (excitation at 470-495 nm, detection at 515-575 nm). […]

[4] = target: KOR (Homo sapiens, UniProt P41145); experiment: KOR calcium mobilization agonist/antagonist screen (CHO-RD-HGA16 cells); set-up: host or cells: CHO-RD-HGA16; conditions: single concentration; for Emax: CHO-RD-HGA16, agonist screen, control agonist U69,593; for KOR Calcium % U69, 593 Inhibition: antagonist screen, vs EC60 of U69,593
Sequence of KOR (P41145 whole entry): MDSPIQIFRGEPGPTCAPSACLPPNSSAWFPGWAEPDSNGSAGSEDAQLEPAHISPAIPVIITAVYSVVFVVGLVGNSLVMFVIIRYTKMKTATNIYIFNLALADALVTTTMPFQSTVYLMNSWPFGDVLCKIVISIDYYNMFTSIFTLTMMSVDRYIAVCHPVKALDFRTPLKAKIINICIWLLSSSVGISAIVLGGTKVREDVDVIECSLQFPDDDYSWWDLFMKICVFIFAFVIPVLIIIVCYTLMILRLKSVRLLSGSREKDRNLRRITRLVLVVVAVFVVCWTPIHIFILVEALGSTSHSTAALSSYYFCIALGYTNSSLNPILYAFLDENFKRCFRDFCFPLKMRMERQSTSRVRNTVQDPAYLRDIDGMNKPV
Protocol: as §2

[5] = target: MOR (Homo sapiens, UniProt P35372); experiment: MOR calcium mobilization agonist/antagonist screen (CHO-RD-HGA16 cells); set-up: host or cells: CHO-RD-HGA16; conditions: single concentration; for Emax: CHO-RD-HGA16, agonist screen, control agonist DAMGO; for MOR Calcium % DAMGO Inhibition: antagonist screen, vs EC60 of DAMGO
Sequence of MOR (P35372 whole entry): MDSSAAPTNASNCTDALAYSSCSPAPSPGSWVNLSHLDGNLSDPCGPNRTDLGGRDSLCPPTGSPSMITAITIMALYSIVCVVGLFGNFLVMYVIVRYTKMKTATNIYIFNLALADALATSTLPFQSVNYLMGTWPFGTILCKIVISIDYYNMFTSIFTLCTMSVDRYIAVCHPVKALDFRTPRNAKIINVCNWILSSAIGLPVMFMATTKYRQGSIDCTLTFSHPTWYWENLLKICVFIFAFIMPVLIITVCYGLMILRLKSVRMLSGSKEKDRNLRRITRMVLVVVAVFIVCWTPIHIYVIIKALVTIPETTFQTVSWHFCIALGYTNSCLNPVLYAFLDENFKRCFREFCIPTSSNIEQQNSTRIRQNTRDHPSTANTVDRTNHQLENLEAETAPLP
Protocol: as §2

[6] = target: DOR (Homo sapiens, UniProt P41143); experiment: DOR calcium mobilization agonist/antagonist screen (CHO-RD-HGA16 cells); set-up: host or cells: CHO-RD-HGA16; conditions: single concentration; for Emax: CHO-RD-HGA16, agonist screen, control agonist DPDPE; for DOR Calcium % DPDPE Inhibition: antagonist screen, vs EC60 of DPDPE
Sequence of DOR (P41143 whole entry): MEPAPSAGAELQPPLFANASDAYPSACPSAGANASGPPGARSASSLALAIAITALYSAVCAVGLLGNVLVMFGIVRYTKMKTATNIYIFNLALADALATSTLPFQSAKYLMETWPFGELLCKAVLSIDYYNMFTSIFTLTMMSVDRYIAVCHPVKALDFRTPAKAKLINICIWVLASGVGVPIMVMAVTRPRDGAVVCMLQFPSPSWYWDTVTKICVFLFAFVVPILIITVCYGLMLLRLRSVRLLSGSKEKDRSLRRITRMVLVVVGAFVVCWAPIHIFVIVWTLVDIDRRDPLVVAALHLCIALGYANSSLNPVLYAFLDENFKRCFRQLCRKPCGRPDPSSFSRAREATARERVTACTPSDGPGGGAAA
Protocol: as §2

| Structure (SMILES) | EC50 [1] [µM] | CXCR4 β-arrestin % CXCL-12Emax (n = 2) [2] [%] | CaV 3.2 % CaCl2 Inhibition [3] [%] | Emax [4] [%] | KOR Calcium % U69, 593 Inhibition [4] [%] | Emax [5] [%] | MOR Calcium % DAMGO Inhibition [5] [%] | Emax [6] [%] | DOR Calcium % DPDPE Inhibition [6] [%] | Emax [1] [%] |
| --- | --- | --- | --- | --- | --- | --- | --- | --- | --- | --- |
| C/C=C1/CN2CC[C@H]1C(=O)c1[nH]c3ccc(Cl)cc3c1C2 [WW-2, (4E,5R)-10-chloro-4-ethylidene-1,4,5,7-tetrahydro-2,5-ethanoazocino[4,3-b]indol-6(3H)-one] | > 10 | 4 | 5 | 1 | 22 | 0 | 5 | 0 | 18 | – |
| C/C=C1/CN2CC[C@H]1C(=O)c1[nH]c3cc(F)ccc3c1C2 [WW-3, (4E,5R)-4-ethylidene-9-fluoro-1,4,5,7-tetrahydro-2,5-ethanoazocino[4,3-b]indol-6(3H)-one] | > 10 | 1 | 1 | 1 | 14 | 1 | 1 | 0 | 9 | – |
| C/C=C1/CN2CC[C@H]1C(=O)c1[nH]c3ccc(F)cc3c1C2 [WW-4, (4E,5R)-10-fluoro-4-ethylidene-1,4,5,7-tetrahydro-2,5-ethanoazocino[4,3-b]indol-6(3H)-one] | > 10 | 2 | 6 | 1 | 14 | 0 | 0 | 1 | 9 | – |
| C/C=C1/CN2CC[C@H]1C(=O)c1[nH]c3ccc(OC)cc3c1C2 [WW-5, (4E,5R)-10-methoxy-4-ethylidene-1,4,5,7-tetrahydro-2,5-ethanoazocino[4,3-b]indol-6(3H)-one] | 8.15 ± 0.59 | 7 | 9 | 20 | 17 | 1 | 13 | 2 | 22 | 171 ± 6 |
| CCOC(=O)c1[nH]c2ccccc2c1CN1CCC(C(=O)OC)CC1 [WW-6, ethyl 3-{[4-(methoxycarbonyl)piperidin-1-yl]methyl}-1H-indole-2-carboxylate] | > 10 | 7 | 19 | 0 | 22 | 0 | 11 | 0 | 1 | – |
| C/C=C1/CN(Cc2ccc(OC)cc2)CC[C@H]1C(=O)c1cc2ccccc2[nH]1 [WW-7, (3E,4R)-(3-ethylidene-1-(4-methoxybenzyl)piperidin-4-yl)(1H-indol-2-yl)methanone] | 1.87 ± 0.096 | 0 | 50 | 14 | 38 | 2 | 14 | 6 | 16 | 139 ± 2 |
| C/C=C1/CNCC[C@H]1C(=O)c1cc2ccccc2[nH]1 [WW-8, (3E,4R)-(3-ethylidenepiperidin-4-yl)(1H-indol-2-yl)methanone] | > 10 | 4 | −14 | 3 | 4 | 1 | 3 | 5 | 3 | – |
| C/C=C1/CN(CCc2ccc(F)cc2)CC[C@H]1C(=O)c1cc2ccccc2[nH]1 [WW-9, [(3E,4R)-3-ethylidene-1-(4-fluorophenethyl)piperidin-4-yl](1H-indol-2-yl)methanone] | 2.07 ± 0.18 | 10 | 45 | 1 | 23 | 0 | 34 | 0 | 31 | 132 ± 6 |
| C/C=C1/CN(CC(C)C)CC[C@H]1C(=O)c1cc2ccccc2[nH]1 [WW-10, [(3E,4R)-3-ethylidene-1-(2-methylpropyl)piperidin-4-yl](1H-indol-2-yl)methanone] | > 10 | 2 | −3 | 7 | 8 | 1 | 0 | 4 | 5 | – |
